Non-standard residues stand in square brackets, D forms with d. Residues, ends and D or L forms follow the SMILES beside them.
Target: T1, R3 domain of tau (Homo sapiens, UniProt P10636)
T1 construct: purchased CASLO ApS, Lyngby, Denmark; host or cells: synthetic peptide
Assay: SPR measurement (Biacore 8K, single cycle)
Assay type: binding
Conditions: single cycle kinetics, peptide immobilized on CM5 chip, R3 (304-336) 3.125-100 nM as analyte, PBS pH 7.4, 0.05% Tween20, 1:1 fit
Protocol: Figure 8 SPR measurements of TF2D-5 and TF2D-5a with monomeric full-length tau 441 and tau repeat region 3. […] The concentration of tau during the measurement ranged from 3.125 nM to 25 nM. […] Tau was used in concentrations ranging from 31.25 nM to 500 nM. SPR measurements of A and B were recorded on a T200 Biacore instrument, the corresponding compound was immobilized on a CM5 chip from Cytiva while monomeric tau served as analyte. Tests were performed with TBS pH 7.4, 0.05% Tween20 and 10 µM DTT as running buffer. Fit calculation was completed with the internal evaluation software of the T200 Biacore. A 1:1 model was used for both fits. […] The concentrations for the single cycle measurement ranged from 3.125 nM to 100 nM. Measurements of C were performed on a Biacore 8K using a CM5 chip from Cytiva. TF2D-5a was immobilized on the chip while the R3 region of tau was used as analyte. PBS pH 7.4 with 0.05% Tween20 as used as running buffer. Fit calculation was performed using the Biacore insight evaluation software and a 1:1 model. […]
Measurements of TF2D-5a against the R3 domain of tau were performed on a Biacore 8K (GE Healthcare, Uppsala, Sweden) using a single cycle experiment. […] The data were analyzed using the Biacore insight evaluation software 3.0.12.15655 using a 1:1 fit.

T1 sequence (P10636 622-652 limits assumed): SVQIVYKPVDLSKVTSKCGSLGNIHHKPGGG

Kd: 7.06 pM
SMILES: CC[C@@H](C)[C@@H](NC(=O)[C@@H](Cc1c[nH]cn1)NC(=O)CNC(=O)CNC(=O)[C@H]1CCCN1C(=O)[C@H](NC(=O)[C@@H](CCCCN)NC(=O)[C@@H](Cc1ccccc1)NC(=O)[C@@H](CC(C)C)NC(=O)[C@H](NC(=O)[C@@H](CCC(N)=O)NC(=O)[C@@H](Cc1ccc(O)cc1)NC(=O)CNC(=O)CNC(=O)[C@H](N)CC(=O)O)[C@H](C)CC)[C@H](C)CC)C(=O)N[C@H](Cc1c[nH]cn1)C(=O)N[C@H](CCCNC(=N)N)C(=O)N[C@H](CCCNC(=N)N)C(=O)N[C@H](CCCNC(=N)N)C(=O)N[C@H](CCCNC(=N)N)C(=O)N[C@H](CCCNC(=N)N)C(N)=O [TF2D-5a] (H-[dD]GG[dY][dQ][dI][dL][dF][dK][dI][dP]GG[dH][dI][dH][dR][dR][dR][dR][dR]-NH2)

— PMC9917023, “Stabilization of Monomeric Tau Protein by All D-Enantiomeric Peptide Ligands as Therapeutic Strategy for Alzheimer’s Disease and Other Tauopathies” (International Journal of Molecular Sciences, 2023)
